Experimental findings from US7981903B2, “2-[2-{phenylamino}-1H-pyrrolo[2,3-D]pyrimidin-4-yl)amino] benzamide derivatives as IGF-1R inhibitors for the treatment of cancer” (GlaxoSmithKline LLC, priority 2007, dated 2011) are described below.

Assay [1] has as its target T1, human IR (hIR) (Homo sapiens, UniProt P06213).
T1 construct: containing amino acid residues 979-1382 of human IR; made in house; host or cells: Sf9 cells (baculovirus), same process as hIGF1R
Briefly: TR-FRET kinase assay of purified hIR. It counts as biochemical. Particulars: activated hIR 0.5 nM, 10 μM ATP, values given as pIC50 category. The method, then:
(§1) Time Resolved Fluorescence Resonance Energy Transfer (TR-FRET) assays were carried out on the exemplified compounds as follows:
(§2) Purity is determined by HPLC. The calculated molecular mass of the peptide is 2216 dalton. Tyrosine phosphorylation by human IGF1R (hIGF1R) or human IR (hIR) occurs as indicated (Y*) in the peptide sequence described. Solid peptide sample is dissolved to approximately 1 mM in DMSO, aliquoted, and stored at −20° C. until use. True peptide concentration is determined by amino acid analysis.
hIR: GST-rTEV-IR(979-1382) containing amino acid residues 979-1382 of human IR (as annotated by NCBI accession number NP_000199) is expressed and purified by the same process as hIGF1R. […] Samples, in 25 mM Tris-HCl, 250 mM NaCl, 5% glycerol, 1 mM DTT, pH 7.5, are stored at −80° C. until use.
hIR: Activation of GST-rTEV-IGF-1R(957-1367) is achieved by a 5 minute incubation of hIR (2.7 μM final) with 2 mM ATP in 100 mM HEPES, 10 mM MgCL2, 0.1 mg/ml BSA, at room temperature. Autophosphorylation is stopped by addition of EDTA (to 100 mM final). Aliquoted samples are flash frozen in liquid nitrogen and stored at −80° C. until use.
(§3) Assays are performed in 384-well (Greiner, Catalog No. 784076) microtiter plates. Reaction buffer (50 mM HEPES buffer, pH 7.5; 10 mM MgCL2; 3 mM DTT; 1 mM CHAPS; 0.1 mg/ml BSA) for peptide phosphorylation (10 μl volume) contained, in final concentrations, 500 nM biotinylated peptide substrate; 10 μM ATP; and purified, activated hIGF1R or hIR (0.5 nM). Compounds, titrated in DMSO, are evaluated at eleven concentrations ranging from 50 μM to 0.2 nM. […] Reactions are incubated for 1 hour at room temperature and are stopped by a 5 μl addition of EDTA (to 33 mM). A further addition of 5 μl detection reagents (for final 7 nM Streptavidin-APC (Perkin Elmer #CR^130-150), 1 nM Europium-labeled anti-phosphotyrosine monoclonal antibody (PerkinElmer #AD0067), added in reaction buffer (without DTT), is required for signal generation. After 30 minutes, signal is read on PerkinElmer Viewlux microplate imager or Wallac Victor fluorometer.
(§4) The data for compound concentration responses were plotted as % Inhibition, calculated with the data reduction formula 100*(1-[(U1-C2)/(C1-C2)]), versus concentration of compound, where • U is the unknown value, • C1 is the average control value obtained for DMSO only, and • C2 is the average control value obtained for reactions stopped with EDTA at • t=0.
(§5) Data were fitted to the curve described by: y=((Vmax*x)/(K+x)) where • Vmax is the upper asymptote and • K is the IC50.
Background: TR-FRET usually uses a lanthanide donor and a delayed reading to cut background.

Assay [2] has as its target T2, NIH-3T3 cells overexpressing human IGF-1R (Homo sapiens, UniProt P08069).
T2 construct: expressed in transfected cells; host or cells: NIH-3T3 (mouse fibroblasts)
Briefly: IGF-1R cellular autophosphorylation (DELFIA). It counts as cell-based. The method, then:
NIH-3T3 cells overexpressing human IGF-1R or IR were plated in 96-well plates (10,000 cells/well) in culture media containing 10% fetal bovine serum and incubated at 37° C. in a 5% CO2 incubator. Twenty four hours post-plating, cells were treated with different concentrations of test compounds ranging from 30 uM to 1.5 nM. Two hours after compound addition, cells were stimulated with either human IGF-1 (30 ng/ml) or insulin (3 ug/ml) for 15 minutes. Cell lysates are analyzed for phosphorylated receptors using dissociation enhanced lanthanide fluor-immuno assay (DELFIA) with anti-IGF-1R (MAB391, R&D Systems, Minneapolis, Minn.) or anti-IRβ (sc-711, Santa Cruz Biotechnology, Santa Cruz, Calif.) capture antibody and europium-labeled anti-pTyr antibody (Eu-N1 PT66, Perkin Elmer, Waltham, Mass.) for detection. The fluorescence signal for cells treated with compounds was expressed as percent relative to 100% stimulation (IGF-1 or insulin stimulated signal).

Assay [3] deals with T3, human IGF1R (hIGF1R) (Homo sapiens, UniProt P08069).
T3 construct: containing amino acid residues 957-1367 of human IGF1R; made in house; host or cells: Sf9 cells (baculovirus)
T3 sequence (P08069 957-1367): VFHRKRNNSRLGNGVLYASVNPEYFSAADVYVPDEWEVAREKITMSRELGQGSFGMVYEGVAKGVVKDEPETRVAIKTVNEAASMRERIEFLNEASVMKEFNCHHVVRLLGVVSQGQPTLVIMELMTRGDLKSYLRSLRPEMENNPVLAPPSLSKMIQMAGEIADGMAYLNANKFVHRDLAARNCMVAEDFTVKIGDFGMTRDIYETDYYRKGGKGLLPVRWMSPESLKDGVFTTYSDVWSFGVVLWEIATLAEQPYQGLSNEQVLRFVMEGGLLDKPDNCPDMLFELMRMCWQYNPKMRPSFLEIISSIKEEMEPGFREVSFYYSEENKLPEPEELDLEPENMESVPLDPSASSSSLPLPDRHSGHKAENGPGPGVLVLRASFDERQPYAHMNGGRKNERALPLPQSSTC
Briefly: TR-FRET kinase assay of purified hIGF1R. To be noted: activated hIGF1R 0.5 nM, 10 μM ATP, values given as pIC50 category, read-out: IGF-1R pIC50 (converted). It counts as biochemical. The method, then:
as §1, §2
hIGF1R: GST-rTEV-IGF-1R(957-1367) containing amino acid residues 957-1367 of human IGF1R (as annotated by National Center for Biotechnology Information (NCBI) accession number NP_000866) is purified from a baculovirus expression system in Sf9 cells using Glutathione Sepharose 4FF column chromatography followed by Sephadex-200 size exclusion column chromatography. […] Samples, in 25 mM Tris-HCl, 250 mM NaCl, 5% glycerol, 1 mM DTT, pH 7.5, are stored at −80° C. until use.
hIGF1R: Activation of GST-rTEV-IGF-1R(957-1367) is achieved by a 4 minute incubation of hIGF1R (2.7 μM final) with 2 mM ATP in 50 mM HEPES, 20 mM MgCL2, 0.1 mg/ml BSA, at room temperature. Autophosphorylation is stopped by addition of EDTA (to 100 mM final). Aliquoted samples are flash frozen in liquid nitrogen and stored at −80° C. until use.
as §3, §4, §5

Assay [4] has as its target ALK (Homo sapiens, UniProt Q9UM73). Briefly: ALK enzyme assay (HTRF). It counts as biochemical. Particulars: 0.25 nM ALK, 15.0 μM ATP, values given as pIC50 category. The method, then:
The method measures the ability of the isolated enzyme to catalyse the transfer of the gamma-phosphate from ATP onto the tyrosine residue of a biotinylated synthetic peptide. The extent of tyrosine phosphorylation was measured using an anti-phosphotyrosine antibody, and quantified by homogenous time-resolved fluorescence (HTRF) assay purchased from CisBio (62TK0PEJ).
Reactions were performed in black 384-well polystyrene low volume plates in a final volume of 5 μl.
The reactions were then started by adding the substrate mix. The reactions were allowed to proceed for 120 minutes at 20° C. The reactions were then terminated by the addition of 5 μl HTRF detection mix to each well. The final concentrations of the detection reagents were: 50 mM HEPES (pH7.0); 0.1% BSA; 0.8 M KF; 20 mM EDTA; 1 mM CHAPS; TK-antibody Europium Cryptate; and 41 nM streptavidin-XL665. Assay plates were left unsealed, stacked and incubated at 20° for 60 minutes. Quantification of activity was achieved by counting in an Envision Counter (PerkinElmer).
Compounds under analysis were dissolved in Me2SO to 1.0 mM and serially diluted 1 to 3 with Me2SO through twelve dilutions. 0.05 μl of each concentration was transferred to the corresponding well of an assay plate. This creates a final compound concentration range from 0.00017 to 10 μM.
The data for dose responses were plotted as % Inhibition calculated with the data reduction formula 100*(1-(U1-C2)/(C1-C2)) versus concentration of compound where U is the unknown value, C1 is the average control value obtained for 1% DMSO, and C2 is the average control value obtained for 0.1 M EDTA. Data were fitted with a curve described by:
[formula] where A is the minimum y, B is the maximum y concentration [M], D is the slope factor, and x is the log10 of the compound.

Sequence of ALK (Q9UM73 19-1620): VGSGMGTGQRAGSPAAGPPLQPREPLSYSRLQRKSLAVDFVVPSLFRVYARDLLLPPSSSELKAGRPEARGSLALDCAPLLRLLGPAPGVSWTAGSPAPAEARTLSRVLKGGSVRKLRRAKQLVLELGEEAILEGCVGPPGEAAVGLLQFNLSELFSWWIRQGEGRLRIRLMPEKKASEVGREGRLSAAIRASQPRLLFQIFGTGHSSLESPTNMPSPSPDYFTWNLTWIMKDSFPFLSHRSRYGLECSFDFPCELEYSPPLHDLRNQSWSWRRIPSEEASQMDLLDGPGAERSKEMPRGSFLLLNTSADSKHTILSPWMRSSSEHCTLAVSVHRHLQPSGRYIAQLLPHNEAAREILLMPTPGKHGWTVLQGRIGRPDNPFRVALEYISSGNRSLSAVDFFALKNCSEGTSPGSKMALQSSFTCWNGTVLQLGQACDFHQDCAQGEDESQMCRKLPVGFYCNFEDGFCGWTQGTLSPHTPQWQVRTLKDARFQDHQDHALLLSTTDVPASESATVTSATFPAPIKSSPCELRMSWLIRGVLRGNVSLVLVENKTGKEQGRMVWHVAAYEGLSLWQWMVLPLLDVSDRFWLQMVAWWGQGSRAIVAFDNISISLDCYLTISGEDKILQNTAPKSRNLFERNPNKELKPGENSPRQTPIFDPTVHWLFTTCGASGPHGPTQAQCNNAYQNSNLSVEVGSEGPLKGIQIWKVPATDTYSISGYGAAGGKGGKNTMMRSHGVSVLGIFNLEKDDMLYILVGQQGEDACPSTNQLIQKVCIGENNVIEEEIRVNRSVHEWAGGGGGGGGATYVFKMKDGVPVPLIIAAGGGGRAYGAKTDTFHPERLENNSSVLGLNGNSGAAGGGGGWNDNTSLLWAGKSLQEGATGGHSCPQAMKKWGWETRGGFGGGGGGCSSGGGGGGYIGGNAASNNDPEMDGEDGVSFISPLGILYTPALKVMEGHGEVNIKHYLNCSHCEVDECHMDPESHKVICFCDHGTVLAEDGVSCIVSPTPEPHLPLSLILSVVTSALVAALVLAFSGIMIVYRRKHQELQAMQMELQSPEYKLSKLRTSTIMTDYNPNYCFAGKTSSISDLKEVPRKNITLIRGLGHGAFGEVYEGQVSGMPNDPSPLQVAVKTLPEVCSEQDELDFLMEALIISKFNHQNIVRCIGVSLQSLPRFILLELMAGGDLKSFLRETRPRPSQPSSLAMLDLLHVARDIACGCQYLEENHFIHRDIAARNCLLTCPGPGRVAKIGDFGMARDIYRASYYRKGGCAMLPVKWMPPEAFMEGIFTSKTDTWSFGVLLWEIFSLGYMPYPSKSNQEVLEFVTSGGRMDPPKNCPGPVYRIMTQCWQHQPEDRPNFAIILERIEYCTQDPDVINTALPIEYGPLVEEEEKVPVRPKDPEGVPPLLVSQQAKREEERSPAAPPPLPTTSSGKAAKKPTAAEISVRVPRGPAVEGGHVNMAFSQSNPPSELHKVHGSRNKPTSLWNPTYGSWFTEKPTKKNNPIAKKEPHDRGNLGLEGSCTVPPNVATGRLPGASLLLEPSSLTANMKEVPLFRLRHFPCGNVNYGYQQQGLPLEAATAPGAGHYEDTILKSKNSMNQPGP
T2 sequence (P08069 31-1367): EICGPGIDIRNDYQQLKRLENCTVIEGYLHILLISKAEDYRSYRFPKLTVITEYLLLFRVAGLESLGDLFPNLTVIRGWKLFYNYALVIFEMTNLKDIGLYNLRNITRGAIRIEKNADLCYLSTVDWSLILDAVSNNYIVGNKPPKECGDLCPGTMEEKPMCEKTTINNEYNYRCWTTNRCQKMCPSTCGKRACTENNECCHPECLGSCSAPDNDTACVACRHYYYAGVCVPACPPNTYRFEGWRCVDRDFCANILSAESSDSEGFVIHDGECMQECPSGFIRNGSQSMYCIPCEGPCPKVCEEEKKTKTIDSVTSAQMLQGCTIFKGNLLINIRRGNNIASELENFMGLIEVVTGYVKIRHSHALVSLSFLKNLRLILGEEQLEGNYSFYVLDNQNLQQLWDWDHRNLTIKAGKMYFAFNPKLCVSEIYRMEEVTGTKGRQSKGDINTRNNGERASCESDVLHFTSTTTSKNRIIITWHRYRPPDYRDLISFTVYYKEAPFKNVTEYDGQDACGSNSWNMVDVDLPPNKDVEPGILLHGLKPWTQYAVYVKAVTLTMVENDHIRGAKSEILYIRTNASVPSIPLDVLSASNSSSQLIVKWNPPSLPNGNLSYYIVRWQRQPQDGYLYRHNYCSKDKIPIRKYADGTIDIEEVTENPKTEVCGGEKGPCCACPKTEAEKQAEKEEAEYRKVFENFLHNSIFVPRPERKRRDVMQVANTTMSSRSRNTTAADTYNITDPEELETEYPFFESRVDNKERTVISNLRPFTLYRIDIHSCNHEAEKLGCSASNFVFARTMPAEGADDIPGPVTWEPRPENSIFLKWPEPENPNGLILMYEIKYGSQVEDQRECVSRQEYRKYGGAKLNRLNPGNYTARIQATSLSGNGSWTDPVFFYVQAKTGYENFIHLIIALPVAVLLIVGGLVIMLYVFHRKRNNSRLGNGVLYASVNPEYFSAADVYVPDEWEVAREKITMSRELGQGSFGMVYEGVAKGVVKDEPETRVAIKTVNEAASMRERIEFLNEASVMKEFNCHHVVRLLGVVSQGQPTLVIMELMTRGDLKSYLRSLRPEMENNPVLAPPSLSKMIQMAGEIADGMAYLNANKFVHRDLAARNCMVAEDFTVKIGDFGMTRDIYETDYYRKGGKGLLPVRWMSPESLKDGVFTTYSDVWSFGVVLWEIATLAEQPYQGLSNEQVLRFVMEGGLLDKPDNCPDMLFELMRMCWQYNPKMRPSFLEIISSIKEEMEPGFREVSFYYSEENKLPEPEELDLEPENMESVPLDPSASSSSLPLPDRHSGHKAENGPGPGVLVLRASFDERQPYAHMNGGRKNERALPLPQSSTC
T1 sequence (P06213 979-1382): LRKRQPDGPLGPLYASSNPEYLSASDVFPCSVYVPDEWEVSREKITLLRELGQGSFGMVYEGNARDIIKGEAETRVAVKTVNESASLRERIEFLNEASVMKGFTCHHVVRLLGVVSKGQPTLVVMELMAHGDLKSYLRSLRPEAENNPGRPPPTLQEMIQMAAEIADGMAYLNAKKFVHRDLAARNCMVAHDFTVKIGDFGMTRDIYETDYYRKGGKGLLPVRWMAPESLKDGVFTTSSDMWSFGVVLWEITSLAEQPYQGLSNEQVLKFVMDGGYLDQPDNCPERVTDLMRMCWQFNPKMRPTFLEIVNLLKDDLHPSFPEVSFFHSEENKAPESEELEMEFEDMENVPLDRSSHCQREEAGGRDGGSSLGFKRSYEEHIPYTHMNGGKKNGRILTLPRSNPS

In the case of `COc1cc(C2=CCCN(C)C2)ccc1Nc1nc(Nc2ccccc2C(N)=O)c2cc[nH]c2n1` [Example 4, 2-[(2-{[2-(methyloxy)-4-(1-methyl-1,2,5,6-tetrahydro-3-pyridinyl)phenyl]amino}-1H-pyrrolo[2,3-d]pyrimidin-4-yl)amino]benzamide], the IC50 in assay [1] was 0.251 to 1 nM; in assay [2] it was less than 100 nM; in assay [3], 0.251 to 1 nM; in assay [4], 0.251 to 1 nM.

Consider `CNC(=O)c1ccccc1Nc1nc(Nc2ccc(N3CCN(C(C)C)CC3)cc2OC)nc2[nH]ccc12` [Example 25, N-methyl-2-[(2-{[4-[4-(1-methylethyl)-1-piperazinyl]-2-(methyloxy)phenyl]amino}-1H-pyrrolo[2,3-d]pyrimidin-4-yl)amino]benzamide], for which the IC50 is 1.26 to 3.98 nM in assay [1], 100 to 500 nM in assay [2], 1.26 to 3.98 nM in assay [3] and 0.251 to 1 nM in assay [4].

Consider `COc1cc(C2=CCCN(C(C)C)C2)ccc1Nc1nc(Nc2cc(F)c(F)cc2C(N)=O)c2cc[nH]c2n1` [Example 96, 4,5-difluoro-2-[(2-{[4-[1-(1-methylethyl)-1,2,5,6-tetrahydro-3-pyridinyl]-2-(methyloxy)phenyl]amino}-1H-pyrrolo[2,3-d]pyrimidin-4-yl)amino]benzamide], for which the IC50 was 0.251 to 1 nM in assay [1], less than 100 nM in assay [2], 0.251 to 1 nM in assay [3] and 0.251 to 1 nM in assay [4].

Consider `CCCN1CCC=C(c2ccc(Nc3nc(Nc4ccc(OC)cc4C(N)=O)c4cc[nH]c4n3)c(OC)c2)C1` [Example 38, 5-(methyloxy)-2-[(2-{[2-(methyloxy)-4-(1-propyl-1,2,5,6-tetrahydro-3-pyridinyl)phenyl]amino}-1H-pyrrolo[2,3-d]pyrimidin-4-yl)amino]benzamide], for which the IC50 in assay [1] is 1.26 to 3.98 nM; in assay [2] it was 100 to 500 nM; in assay [3], 1.26 to 3.98 nM; in assay [4] it was 0.251 to 1 nM.

As for `CCCN1CCC=C(c2ccc(Nc3nc(Nc4cc(F)c(F)cc4C(N)=O)c4cc[nH]c4n3)c(OC)c2)C1` [Example 95, 4,5-difluoro-2-[(2-{[2-(methyloxy)-4-(1-propyl-1,2,5,6-tetrahydro-3-pyridinyl)phenyl]amino}-1H-pyrrolo[2,3-d]pyrimidin-4-yl)amino]benzamide], the IC50 in assay [1] was 0.251 to 1 nM; in assay [2], 100 to 500 nM; in assay [3] it was 0.251 to 1 nM; in assay [4], 0.251 to 1 nM.

For the compound `CNC(=O)c1ccccc1Nc1nc(Nc2ccc(C3=CCCN(C)C3)cc2OC)nc2[nH]ccc12` [Example 21, N-methyl-2-[(2-{[2-(methyloxy)-4-(1-methyl-1,2,5,6-tetrahydro-3-pyridinyl)phenyl]amino}-1H-pyrrolo[2,3-d]pyrimidin-4-yl)amino]benzamide], the IC50 in assay [1] is 0.251 to 1 nM; in assay [2] it was 100 to 500 nM; in assay [3], 1.26 to 3.98 nM; in assay [4], 0.251 to 1 nM.

On to `CNC(=O)c1ccccc1Nc1nc(Nc2ccc(C3CCCN(C)C3)cc2OC)nc2[nH]ccc12` (centres unmarked) [Example 22, N-methyl-2-[(2-{[2-(methyloxy)-4-(1-methyl-3-piperidinyl)phenyl]amino}-1H-pyrrolo[2,3-d]pyrimidin-4-yl)amino]benzamide], for which the IC50 was 0.251 to 1 nM in assay [1], 100 to 500 nM in assay [2], 1.26 to 3.98 nM in assay [3] and 0.251 to 1 nM in assay [4].

In the case of `COc1cc(C2=CCCN(C(C)C)C2)ccc1Nc1nc(Nc2ccccc2C(N)=O)c2cc[nH]c2n1` [Example 6, 2-[(2-{[4-[1-(1-methylethyl)-1,2,5,6-tetrahydro-3-pyridinyl]-2-(methyloxy)phenyl]amino}-1H-pyrrolo[2,3-d]pyrimidin-4-yl)amino]benzamide], the IC50 in assay [1] is 0.251 to 1 nM; in assay [2], less than 100 nM; in assay [3], 0.251 to 1 nM; in assay [4], 0.251 to 1 nM.

Take `CCCN1CCN(c2ccc(Nc3nc(Nc4ccccc4C(N)=O)c4cc[nH]c4n3)c(OC)c2)CC1` [Example 8, 2-[(2-{[2-(methyloxy)-4-(4-propyl-1-piperazinyl)phenyl]amino}-1H-pyrrolo[2,3-d]pyrimidin-4-yl)amino]benzamide]: the IC50 in assay [1] was 0.251 to 1 nM; in assay [2] it was less than 100 nM; in assay [3] it was 1.26 to 3.98 nM.

For `COc1cc(C2CCCN(C)C2)ccc1Nc1nc(Nc2ccc(F)cc2C(N)=O)c2cc[nH]c2n1` (centres unmarked) [Example 56, 5-fluoro-2-[(2-{[2-(methyloxy)-4-(1-methyl-3-piperidinyl)phenyl]amino}-1H-pyrrolo[2,3-d]pyrimidin-4-yl)amino]benzamide], the IC50 in assay [1] is 0.251 to 1 nM; in assay [2], less than 100 nM; in assay [4], 0.251 to 1 nM.
